The subject of this test is Male Wistar rats. The test can be described thus: Conditioned avoidance response (CAR) test of antipsychotic activity. The test is classed as in vivo, rat. Conditions: for ED50: Rattus norvegicus, ip, read-out: ED50 (escape response), dose required to produce 50% of the maximum response; for dose of compound required to produce 8 escapes / dose of compound required to produce 5 escapes: from fitted line. The source says: In the CAR paradigm, a rat is trained in a two chamber shuttle box to respond to a conditioned stimulus (auditory) by negative reinforcement. If the animal fails to move to the other chamber upon presentation of an auditory stimulus, a mild foot shock is applied to the side where the rat is located. The rat learns to avoid the mild foot shock by moving to the other chamber upon initiation of the auditory signal, termed a conditioned avoidance response. Crossing to the other chamber during administration of the shock is termed an escape response. If a rat fails to move to the other chamber even upon administration of the foot shock, the rat is considered to have an escape failure.
Rats were trained every day for 3 to 4 weeks. In the training session, rats were placed in the CAR two-way shuttle box and the training period of 20 trials ensued. A trial consisted of a 10-sec presentation of an 80 dB white noise followed by a scrambled 0.6 mA foot shock lasting up to 20 sec. The inter-trial interval ranged from 20-60 sec. The rat learned to avoid shock by moving from one compartment to the other when the conditioned stimulus was presented (a conditioned avoidance response). A rat was deemed sufficiently trained if it avoided the shock when presented with the conditioned stimulus at least 19 times out of the 20 trials.
On test day, trained animals were acclimated in the test room for 30 minutes prior to testing. They were then dosed with compound and placed in the CAR two-way shuttle box. In the test, 20 trials were performed on each rat. In each trial the conditioned stimulus was applied (10-sec presentation of 80 dB white noise), followed by the foot shock (a scrambled 0.6 mA foot shock lasting up to 20 sec). If the animal moved to the other chamber on presentation of the conditioned stimulus, it was scored as a conditioned avoidance response. If it moved upon presentation of the foot shock, it was scored as an escape. […] Antipsychotic efficacy is evident by an increase in the number of escapes. Data were analyzed by analysis of variance (ANOVA) followed by post-hoc comparisons with the Bonferroni Test when appropriate. An effect is considered significant if p<0.05. Outliers defined as two standard deviations above or below the mean were detected and were removed from all analysis. Results are reported as mean±SEM for number of escapes.
Animals: Male Wistar rats from Harlan (Indianapolis, Ind.) were used in the study. Upon receipt, rats were assigned unique identification numbers and were group housed with 3 rats per cage in polycarbonate cages with micro-isolator filter tops. All rats were examined, handled, and weighed prior to initiation of the study to assure adequate health and suitability. The rats were maintained at 12/12 light/dark cycle with lights on at 6:00 A.M. The room temperature was maintained between 20 and 23° C. with a relative humidity maintained around 50%. Chow and water were provided ad libitum for the duration of the study. For each test, animals were randomly assigned across treatment groups. Each treatment group contained 10 animals at time of testing.
Test Compounds: Risperidone (0.03, 0.1, 0.3, and 1 mg/kg) was dissolved in 10% DMSO and administered i.p. 30 min prior to testing at a dose volume of 1 ml/kg. […] The vehicle control group received 10% DMSO (i.p., 30 min pretreatment, 1 ml/kg) immediately followed by administration of sterile water (p.o., 1 ml/kg).
Test Compounds: Olanzapine (0.3, 0.6, 1 and 3 mg/kg) was dissolved in 10% DMSO and administered i.p. 30 min prior to testing at a dose volume of 1 ml/kg.
10% DMSO (i.p., 30 min pretreatment, 1 ml/kg) immediately followed by administration of sterile water (p.o., 1 ml/kg) was used as the vehicle control group.
Test Compounds: Risperidone (0.1, 0.3, and 1 mg/kg) was dissolved in 10% DMSO and administered i.p. 30 min prior to testing at a dose volume of 1 ml/kg.

[1] abbreviates: combination with Compound 5-1 0.3 mg/kg vs risperidone singly, rat.
Where [2] appears, read: combination with R,R,R-DHTBZ 0.15 mg/kg vs risperidone singly, rat.
The mark [3] stands for this setting: risperidone i.p. administered singly, rat.
The mark [4] stands for this setting: combination with R,R,R-DHTBZ 0.15 mg/kg vs olanzapine singly, rat.
Setting [5] is: olanzapine i.p. administered singly, rat.

The values below come from patent US9782398B2, “Pharmaceutical compositions comprising an antipsychotic drug and a VMAT2 inhibitor and uses thereof” (NEUROCRINE BIOSCIENCES, INC., priority 2014, dated 2017).

SMILES strings stand for the structures. “Also recorded” adds a separate entry of the source.

On to `Cc1nc2n(c(=O)c1CCN1CCC(c3noc4cc(F)ccc34)CC1)CCCC2` [risperidone], for which the 50% effective dose (ED50) (usually the dose that gives a 50% effect, or the effect in half of the subjects) came to 0.14 mg/kg. For the same molecule, under setting [1], the “decrease of risperidone dose required to produce 8 escapes” value is “approximately 7 fold” and the “reduction of the risperidone dose” value is 86%. Under setting [2], the “decrease of ED50 of risperidone” value was “approximately 6 fold” and the “reduction of the risperidone dose” value is on record as 83%. Also, the “number of escapes compared to vehicle” value (risperidone 0.1 mg/kg i.p. administered singly, 30 min prior to testing, rat) is listed as “did not result in changes from the vehicle results; also recorded: did not increase”. Besides, under setting [3], the “dose necessary to show antipsychotic efficacy in the CAR paradigm” value turned out to be 0.3 mg/kg and the “dose of compound required to produce 8 escapes” value amounted to 0.26 mg/kg. For the setting “risperidone i.p. in combination with Compound 5-1 0.3 mg/kg p.o., rat”, the “dose of compound required to produce 8 escapes” value was 0.038 mg/kg. Where the note is “risperidone i.p. with addition of Compound 5-1 0.3 mg/kg p.o., rat”, the “doses of risperidone resulting in antipsychotic activity” value is 0.1 mg/kg.
On to `COc1cc2c(cc1OC)[C@H]1C[C@@H](CO)[C@H](CC(C)C)CN1CC2` [Compound 5-1, [(2R,3S,11bR)-9,10-Dimethoxy-3-(2-methylpropyl)-1H,2H,3H,4H,6H,7H,11bH-pyrido[2,1-a]isoquinolin-2-yl]methanol], for which the “number of escapes compared to vehicle” value (Compound 5-1 0.3 mg/kg p.o. administered singly, 60 min prior to testing, rat, 0.3 mg/kg) is listed as “did not result in changes from the vehicle results; also recorded: showed no antipsychotic activity; also recorded: did not increase”.
On to `Cc1cc2c(s1)Nc1ccccc1N=C2N1CCN(C)CC1` [olanzapine], for which the ED50 was found to be 1.2 mg/kg. For the setting “combination with Compound 5-1 0.3 mg/kg vs olanzapine singly, rat”, the “reduction of the olanzapine dose” value came out at 80%. Further, under setting [4], the “decrease of ED50 of olanzapine” value is given as “approximately 2 fold” and the “reduction of the olanzapine dose” value was found to be 50%. Under setting [5], the “dose necessary to show antipsychotic efficacy in the CAR paradigm” value amounted to 1 mg/kg and the “dose of compound required to produce 5 escapes” value was 0.93 mg/kg. Also, where the note is “olanzapine i.p. in combination with Compound 5-1 0.3 mg/kg p.o., rat”, the “dose of compound required to produce 5 escapes” value was found to be 0.18 mg/kg. Also, for the setting “olanzapine i.p. with addition of Compound 5-1 0.3 mg/kg p.o., rat”, the “dose of olanzapine resulting in antipsychotic activity” value is 0.6 mg/kg. Also, the “dose of olanzapine resulting in antipsychotic activity” value (olanzapine i.p. with addition of R,R,R-DHTBZ 0.15 mg/kg p.o., rat) is recorded as 0.6 mg/kg.
As for `COc1cc2c(cc1OC)[C@H]1C[C@@H](O)[C@H](CC(C)C)CN1CC2` [R,R,R-DHTBZ, (2R,3R,11bR)-3-isobutyl-9,10-dimethoxy-1,3,4,6,7,11b-hexahydro-2H-pyrido[2,1-a]isoquinolin-2-ol], the “number of escapes compared to vehicle” value is listed as “did not increase; also recorded: did not result in changes from the vehicle results” (R,R,R-DHTBZ 0.15 mg/kg p.o. administered singly, 30 min prior to testing, rat) and “showed no antipsychotic activity” (R,R,R-DHTBZ 0.15 mg/kg p.o. administered singly, 30 min prior to testing, rat, listed as R,R,R DHTBZ).
